In patent US8415469B2, “Compounds and methods for kinase modulation, and indications therefor” (Plexxikon Inc., priority 2005, dated 2013):

How the values were obtained:
Format in all cases: biochemical
Fak = target: T1, Fak (Homo sapiens, UniProt Q05397); test: AlphaScreen kinase assay, Fak; conditions: read-out: IC50, activity toward kinase Fak
T1 construct: P1358.pFastBacHtb FAK S411-Q686-X; His6 with pFastBacHTb leader (TEV site) (N); made in house; host or cells: Sf9 (baculovirus)

FGFR1 = target: T2, FGFR1 (Homo sapiens, UniProt P11362, C488A/C584S); test: AlphaScreen kinase assay, FGFR1; conditions: read-out: IC50, activity toward kinase FGFR
T2 construct: P1351.pET N6 BI-PTP FGFR A458-E765-X C488A, C584S; made in house; host or cells: E. coli (PTP1B co-expressed)
T2 sequence (P11362 458-765 C488A/C584S): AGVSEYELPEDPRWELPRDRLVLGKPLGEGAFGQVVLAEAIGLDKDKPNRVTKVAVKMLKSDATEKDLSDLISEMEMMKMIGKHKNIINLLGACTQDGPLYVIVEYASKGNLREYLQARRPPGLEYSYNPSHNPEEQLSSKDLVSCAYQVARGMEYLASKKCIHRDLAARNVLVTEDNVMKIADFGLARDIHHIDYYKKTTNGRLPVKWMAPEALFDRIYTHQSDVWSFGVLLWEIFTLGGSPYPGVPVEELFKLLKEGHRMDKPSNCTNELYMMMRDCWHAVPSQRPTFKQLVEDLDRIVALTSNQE

Fms = target: T3, Fms (Homo sapiens, UniProt P07333); test: AlphaScreen kinase assay, Fms; conditions: read-out: IC50, activity toward kinase Fms
T3 construct: purchased Upstate Biotechnology
T3 sequence (P07333 20-972): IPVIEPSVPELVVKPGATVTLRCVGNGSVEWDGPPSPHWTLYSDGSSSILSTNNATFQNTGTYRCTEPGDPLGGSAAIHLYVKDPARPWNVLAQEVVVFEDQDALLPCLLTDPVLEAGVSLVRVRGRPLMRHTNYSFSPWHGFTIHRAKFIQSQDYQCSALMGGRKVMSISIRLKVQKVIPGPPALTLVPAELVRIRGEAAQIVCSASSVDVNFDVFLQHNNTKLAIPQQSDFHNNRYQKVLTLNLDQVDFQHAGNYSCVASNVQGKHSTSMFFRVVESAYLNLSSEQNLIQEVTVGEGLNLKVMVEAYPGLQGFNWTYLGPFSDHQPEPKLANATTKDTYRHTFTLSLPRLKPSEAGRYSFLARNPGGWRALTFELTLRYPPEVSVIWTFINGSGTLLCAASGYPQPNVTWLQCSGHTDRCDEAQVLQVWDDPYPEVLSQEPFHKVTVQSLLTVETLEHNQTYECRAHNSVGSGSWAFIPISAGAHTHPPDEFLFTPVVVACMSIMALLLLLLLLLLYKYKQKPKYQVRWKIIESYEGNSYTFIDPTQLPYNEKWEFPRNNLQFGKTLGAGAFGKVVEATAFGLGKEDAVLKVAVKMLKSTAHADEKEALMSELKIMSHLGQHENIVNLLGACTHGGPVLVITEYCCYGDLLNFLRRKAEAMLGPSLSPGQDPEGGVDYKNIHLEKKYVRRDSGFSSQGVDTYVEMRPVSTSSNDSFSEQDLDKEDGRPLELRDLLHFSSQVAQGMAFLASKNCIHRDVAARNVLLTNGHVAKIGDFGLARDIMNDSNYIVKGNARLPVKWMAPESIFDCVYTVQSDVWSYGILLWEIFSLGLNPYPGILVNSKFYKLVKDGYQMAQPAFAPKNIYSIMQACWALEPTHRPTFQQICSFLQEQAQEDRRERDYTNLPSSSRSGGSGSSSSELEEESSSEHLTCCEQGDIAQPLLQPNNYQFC

Kdr = target: T4, Kdr (Homo sapiens, UniProt P35968); test: Z'-Lyte FRET kinase assay (Invitrogen), Kdr; conditions: read-out: IC50, activity toward kinase Kdr
T4 construct: purchased Invitrogen (assay run by Invitrogen)
T4 sequence (P35968 20-1356): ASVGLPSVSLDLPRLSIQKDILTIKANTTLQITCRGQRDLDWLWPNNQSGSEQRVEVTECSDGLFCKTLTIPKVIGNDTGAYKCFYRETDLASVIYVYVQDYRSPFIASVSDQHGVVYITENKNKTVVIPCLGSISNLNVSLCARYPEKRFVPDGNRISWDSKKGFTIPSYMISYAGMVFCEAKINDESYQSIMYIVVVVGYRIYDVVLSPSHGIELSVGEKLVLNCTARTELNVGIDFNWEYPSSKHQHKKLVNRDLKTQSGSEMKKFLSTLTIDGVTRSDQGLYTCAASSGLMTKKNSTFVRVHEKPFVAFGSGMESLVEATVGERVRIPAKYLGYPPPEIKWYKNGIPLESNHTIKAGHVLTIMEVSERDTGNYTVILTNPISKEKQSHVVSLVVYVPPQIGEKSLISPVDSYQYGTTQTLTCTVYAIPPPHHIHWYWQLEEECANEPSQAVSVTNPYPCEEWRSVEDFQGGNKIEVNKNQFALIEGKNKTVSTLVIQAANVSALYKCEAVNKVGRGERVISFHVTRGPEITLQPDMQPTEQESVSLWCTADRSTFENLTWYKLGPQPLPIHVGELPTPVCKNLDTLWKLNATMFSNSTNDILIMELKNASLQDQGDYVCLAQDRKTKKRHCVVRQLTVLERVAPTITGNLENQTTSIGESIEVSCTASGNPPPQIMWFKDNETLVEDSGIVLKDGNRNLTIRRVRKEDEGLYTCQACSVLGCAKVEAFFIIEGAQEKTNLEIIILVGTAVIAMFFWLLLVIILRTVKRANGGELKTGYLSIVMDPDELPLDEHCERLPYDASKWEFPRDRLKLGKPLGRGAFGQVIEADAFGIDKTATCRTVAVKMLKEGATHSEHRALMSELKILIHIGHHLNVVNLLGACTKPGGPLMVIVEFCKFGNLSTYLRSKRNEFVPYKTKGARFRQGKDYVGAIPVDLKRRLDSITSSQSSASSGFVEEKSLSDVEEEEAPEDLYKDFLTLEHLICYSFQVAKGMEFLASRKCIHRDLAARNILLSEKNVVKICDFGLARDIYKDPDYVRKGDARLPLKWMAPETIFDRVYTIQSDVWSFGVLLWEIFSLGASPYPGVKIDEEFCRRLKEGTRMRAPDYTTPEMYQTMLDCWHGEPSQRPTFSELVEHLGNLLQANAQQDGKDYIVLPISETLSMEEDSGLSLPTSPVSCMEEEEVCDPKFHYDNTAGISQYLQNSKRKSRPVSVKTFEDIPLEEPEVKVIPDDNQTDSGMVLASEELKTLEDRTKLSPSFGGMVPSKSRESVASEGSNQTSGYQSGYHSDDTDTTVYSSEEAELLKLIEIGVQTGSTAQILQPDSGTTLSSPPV

Kit = target: T5, Kit (Homo sapiens, UniProt P10721); test: AlphaScreen kinase assay, Kit; conditions: read-out: IC50, activity toward kinase Kit
T5 construct: P1332.N6 BI PTP KIT M552-K948-X COD; His6 (N); made in house; host or cells: E. coli (PTP1B co-expressed)
T5 sequence (P10721 with tags, fused parts or gaps): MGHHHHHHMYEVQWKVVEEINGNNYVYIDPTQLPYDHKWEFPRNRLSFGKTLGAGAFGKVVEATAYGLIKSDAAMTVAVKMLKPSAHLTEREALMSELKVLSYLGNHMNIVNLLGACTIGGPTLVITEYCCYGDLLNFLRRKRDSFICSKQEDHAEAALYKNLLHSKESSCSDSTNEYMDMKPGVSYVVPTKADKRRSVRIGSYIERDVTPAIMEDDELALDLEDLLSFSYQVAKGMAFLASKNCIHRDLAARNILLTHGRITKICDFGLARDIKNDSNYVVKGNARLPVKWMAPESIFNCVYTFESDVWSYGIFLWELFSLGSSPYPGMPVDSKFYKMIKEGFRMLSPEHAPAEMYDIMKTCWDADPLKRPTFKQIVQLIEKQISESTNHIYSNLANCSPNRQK

Met = target: T6, Met (Homo sapiens, UniProt P08581); test: AlphaScreen kinase assay, Met; conditions: read-out: IC50, activity toward kinase Met
T6 construct: P1818.pETN6 BI-PTP MET G1056-G1364-X WT; His6 (N); made in house; host or cells: E. coli (PTP1B co-expressed)
T6 sequence (P08581 with tags, fused parts or gaps): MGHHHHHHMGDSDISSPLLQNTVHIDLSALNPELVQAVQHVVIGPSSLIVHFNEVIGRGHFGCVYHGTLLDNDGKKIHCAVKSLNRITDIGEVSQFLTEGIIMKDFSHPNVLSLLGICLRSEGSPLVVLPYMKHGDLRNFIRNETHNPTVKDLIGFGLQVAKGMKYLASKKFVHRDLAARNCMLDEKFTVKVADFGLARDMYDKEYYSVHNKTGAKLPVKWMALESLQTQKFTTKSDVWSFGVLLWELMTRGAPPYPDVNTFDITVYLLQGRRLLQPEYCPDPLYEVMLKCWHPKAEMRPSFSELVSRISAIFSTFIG
Summary of the method: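 Uses phospho-specific antibody on acceptor beads plus streptavidin donor beads capturing biotinylated peptide substrate; singlet oxygen from donor excites nearby acceptor. Inhibitors tested in 8-point, 1:3 titrations starting from 20 mM DMSO solutions.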

Stk6 = target: T7, Stk6 (Homo sapiens, UniProt O14965); test: Z'-Lyte FRET kinase assay (Invitrogen), Stk6; conditions: read-out: IC50, activity toward kinase Stk6
T7 construct: purchased Invitrogen (Carlsbad, Calif.), screening service
T7 sequence (O14965 1-403): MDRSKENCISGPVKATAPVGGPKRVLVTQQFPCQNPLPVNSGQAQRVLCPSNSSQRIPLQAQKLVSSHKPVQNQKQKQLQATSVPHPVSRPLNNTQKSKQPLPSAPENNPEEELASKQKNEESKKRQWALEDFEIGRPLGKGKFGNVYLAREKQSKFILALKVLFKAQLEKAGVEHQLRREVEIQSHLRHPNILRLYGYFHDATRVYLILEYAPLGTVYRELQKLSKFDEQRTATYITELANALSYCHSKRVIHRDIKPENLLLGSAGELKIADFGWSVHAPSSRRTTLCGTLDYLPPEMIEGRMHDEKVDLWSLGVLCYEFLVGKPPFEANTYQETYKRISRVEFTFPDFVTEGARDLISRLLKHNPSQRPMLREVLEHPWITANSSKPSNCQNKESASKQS

Btk = target: T8, Btk (Homo sapiens, UniProt Q06187); test: Z'-Lyte FRET kinase assay (Invitrogen), Btk; conditions: read-out: IC50, activity toward kinase Btk
T8 construct: purchased Invitrogen (assay run by Invitrogen)
T8 sequence (Q06187 whole entry): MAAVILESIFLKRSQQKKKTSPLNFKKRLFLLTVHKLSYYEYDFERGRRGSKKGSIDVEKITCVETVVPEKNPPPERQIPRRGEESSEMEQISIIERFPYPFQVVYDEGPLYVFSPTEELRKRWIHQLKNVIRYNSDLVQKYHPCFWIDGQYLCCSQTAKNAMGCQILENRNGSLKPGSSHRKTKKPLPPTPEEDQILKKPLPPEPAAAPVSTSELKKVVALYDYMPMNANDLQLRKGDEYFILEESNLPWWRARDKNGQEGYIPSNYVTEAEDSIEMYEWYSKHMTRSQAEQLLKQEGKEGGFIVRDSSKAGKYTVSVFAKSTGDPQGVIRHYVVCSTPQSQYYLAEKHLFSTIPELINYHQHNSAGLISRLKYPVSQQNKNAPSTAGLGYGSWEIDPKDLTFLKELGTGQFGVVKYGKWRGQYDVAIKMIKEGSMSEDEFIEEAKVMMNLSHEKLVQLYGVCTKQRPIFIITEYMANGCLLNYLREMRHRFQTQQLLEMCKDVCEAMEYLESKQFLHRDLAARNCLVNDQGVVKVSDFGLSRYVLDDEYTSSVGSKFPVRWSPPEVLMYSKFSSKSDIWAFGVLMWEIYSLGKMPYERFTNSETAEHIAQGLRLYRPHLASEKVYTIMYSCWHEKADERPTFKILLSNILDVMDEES

T1 sequence (Q05397 411-686): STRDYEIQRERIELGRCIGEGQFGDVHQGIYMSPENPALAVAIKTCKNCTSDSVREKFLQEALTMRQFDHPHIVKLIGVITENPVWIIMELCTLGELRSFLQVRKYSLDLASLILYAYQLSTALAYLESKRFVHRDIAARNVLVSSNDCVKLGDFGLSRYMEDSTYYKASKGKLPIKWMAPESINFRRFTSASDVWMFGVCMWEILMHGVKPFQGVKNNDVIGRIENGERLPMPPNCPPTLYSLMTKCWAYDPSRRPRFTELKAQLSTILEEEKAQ

IC50 (Fak) | IC50 (FGFR1) | IC50 (Fms) | IC50 (Kdr) | IC50 (Kit) | IC50 (Met) | IC50 (Stk6) | IC50 (Btk) | Compound
≤ 10 µM | ≤ 10 µM | ≤ 10 µM | ≤ 10 µM | ≤ 10 µM | ≤ 10 µM | ≤ 10 µM |  | CC(=O)Nc1cccc(-c2cnc3[nH]cc(C(=O)c4cc(O)ccc4F)c3c2)c1 [Compound P-0001]
≤ 10 µM | ≤ 10 µM | ≤ 10 µM |  | ≤ 10 µM | ≤ 10 µM | ≤ 10 µM |  | Nc1cccc(-c2cnc3[nH]cc(C(=O)c4cc(O)ccc4F)c3c2)c1 [Compound P-0002]
≤ 10 µM | ≤ 10 µM | ≤ 10 µM |  | ≤ 10 µM | ≤ 10 µM | ≤ 10 µM |  | CS(=O)(=O)c1cccc(-c2cnc3[nH]cc(C(=O)c4cc(O)ccc4F)c3c2)c1 [Compound P-0008, (2-Fluoro-5-hydroxy-phenyl)-[5-(3-methanesulfonyl-phenyl)-1H-pyrrolo[2,3-b]pyridin-3-yl]-methanone]
≤ 10 µM | ≤ 10 µM | ≤ 10 µM |  | ≤ 10 µM | ≤ 10 µM | ≤ 10 µM |  | CC(=O)Nc1cccc(-c2cnc3[nH]cc(C(=O)c4cccc(O)c4F)c3c2)c1 [Compound P-0035, N-{3-[3-(2-Fluoro-3-hydroxy-benzoyl)-1H-pyrrolo[2,3-b]pyridin-5-yl]-phenyl}-acetamide]
 | ≤ 10 µM | ≤ 10 µM |  | ≤ 10 µM | ≤ 10 µM |  |  | CS(=O)(=O)Nc1cccc(-c2cnc3[nH]cc(C(=O)c4cccc(O)c4F)c3c2)c1 [Compound P-0038, N-{3-[3-(2-Fluoro-3-hydroxy-benzoyl)-1H-pyrrolo[2,3-b]pyridin-5-yl]-phenyl}-methanesulfonamide]
 | ≤ 10 µM |  |  |  | ≤ 10 µM | ≤ 10 µM |  | Cc1ccc(S(=O)(=O)NCc2c[nH]c3ncccc23)cc1 [Compound P-0058]
≤ 10 µM | ≤ 10 µM | ≤ 10 µM | ≤ 10 µM | ≤ 10 µM | ≤ 10 µM |  |  | Oc1ccc(F)c(Cc2c[nH]c3ncc(-c4cccnc4)cc23)c1F [Compound P-0078, 2,4-difluoro-3-(5-pyridin-3-yl-1H-pyrrolo[2,3-b]pyridin-3-ylmethyl)-phenol]
≤ 10 µM | ≤ 10 µM | ≤ 10 µM | ≤ 10 µM | ≤ 10 µM |  | ≤ 10 µM | ≤ 10 µM | CCCS(=O)(=O)Nc1ccc(F)c(C(=O)c2c[nH]c3ncc(-c4cccnc4)cc23)c1F [Compound P-0088, Propane-1-sulfonic acid [2,4-difluoro-3-(5-pyridin-3-yl-1H-pyrrolo[2,3-b]pyridine-3-carbonyl)-phenyl]-amide]
≤ 10 µM | ≤ 10 µM | ≤ 10 µM | ≤ 10 µM | ≤ 10 µM | ≤ 10 µM |  |  | Cc1c(O)cccc1C(=O)c1c[nH]c2ncc(-c3cccs3)cc12 [Compound P-0114, (3-Hydroxy-2-methyl-phenyl)-(5-thiophen-2-yl-1H-pyrrolo[2,3b]pyridin-3-yl)-methanone]
 | ≤ 10 µM | ≤ 10 µM | ≤ 10 µM | ≤ 10 µM | ≤ 10 µM |  |  | O=C(Nc1ccc(Cc2c[nH]c3ncccc23)cc1)Nc1cccc(C(F)(F)F)c1 [Compound P-0262, 1-[4-(1H-Pyrrolo[2,3-b]pyridin-3-ylmethyl)-phenyl]-3-(3-trifluoromethyl-phenyl)-urea]
≤ 10 µM | ≤ 10 µM | ≤ 10 µM | ≤ 10 µM | ≤ 10 µM |  | ≤ 10 µM | ≤ 10 µM | CCCS(=O)(=O)Nc1ccc(F)c(C(=O)c2c[nH]c3ncc(OC)cc23)c1F [Compound P-0806, Propane-1-sulfonic acid [2,4-difluoro-3-(5-methoxy-1H-pyrrolo[2,3-b]pyridine-3-carbonyl)-phenyl]-amide]
≤ 10 µM | ≤ 10 µM | ≤ 10 µM | ≤ 10 µM | ≤ 10 µM | ≤ 10 µM | ≤ 10 µM |  | CCCC(=O)Nc1ccc(F)c(Cc2c[nH]c3ncc(-c4cccnc4)cc23)c1F [Compound P-1280]
